The source made the active and inactive calls. The calls are words filed in the database; no cut-off is given here.
How the values were obtained:
Format in all cases: functional, organism-based
Bombyx mori [1] = assay: Induction of precocious metamorphosis in Bombyx mori
Bombyx mori [2] = assay: Induction of precocious metamorphosis in newly-molted fourth-instar larvae of Bombyx mori
Bombyx mori [3] = assay: Induction of precocious metamorphosis in newly-molted fourth-instar larvae of Bombyx mori at 1 ug
Bombyx mori [4] = assay: Induction of precocious metamorphosis in fourth-instar larvae of Bombyx mori at 10 ug
Bombyx mori [5] = assay: Induction of precocious metamorphosis in fourth-instar larvae of Bombyx mori at 40 ug
Bombyx mori [6] = assay: Induction of precocious metamorphosis in fourth-instar larvae of Bombyx mori at 0.1 ug
Bombyx mori [7] = assay: Induction of precocious metamorphosis in fourth-instar larvae of Bombyx mori in presence of JH agonist methoprene
Bombyx mori [8] = assay: Induction of precocious metamorphosis in fourth-instar larvae of Bombyx mori
Bombyx mori [9] = assay: Induction of precocious metamorphosis in fourth-instar larvae of Bombyx mori in presence of 20-hydroxyecdysone
Bombyx mori [10] = assay: Induction of precocious metamorphosis in 24-hr old 3rd-instar larvae of Bombyx mori

CCOC(=O)c1ccc(OCC(CC)Oc2ccc(C)nc2)cc1 (stereo not given)
Activity (Bombyx mori [1]): Active

CCCCC(COc1ccc(C(=O)OCC)cc1)Oc1ccc(C)nc1 (stereo not given)
Activity (Bombyx mori [2]): Active
Activity (Bombyx mori [1]): Active

CCCC[C@H](COc1ccc(C(=O)OCC)cc1)Cc1ccccc1
Activity (Bombyx mori [3]): Active
Activity (Bombyx mori [4]): inactive
Activity (Bombyx mori [5]): inactive
Activity (Bombyx mori [6]): Active

CCCCC(COc1ccc(C(=O)OCC)cc1)Cc1ccccc1 (racemic)
Activity (Bombyx mori [3]): Active
Activity (Bombyx mori [2]): Dose-dependent effect
Activity (Bombyx mori [7]): inactive
Activity (Bombyx mori [8]): Active
Activity (Bombyx mori [9]): Active
Activity (Bombyx mori [10]): inactive
Activity (Bombyx mori [1]): Active

CCCCCC(COc1ccc(C(=O)OCC)cc1)Cc1ccccc1 (stereo not given)
Activity (Bombyx mori [1]): Active

CCCC[C@@H](COc1ccc(C(=O)OCC)cc1)Cc1ccccc1
Activity (Bombyx mori [3]): Active
Activity (Bombyx mori [4]): inactive
Activity (Bombyx mori [5]): inactive
Activity (Bombyx mori [6]): Active

CCOC(=O)c1ccc(OCC(Oc2ccc(C)nc2)C(C)(C)C)cc1 (stereo not given)
Activity (Bombyx mori [1]): Active

CCCCC(COc1ccc(C(=O)OCC)cc1)Oc1ccccc1 (stereo not given)
Activity (Bombyx mori [2]): Active
Activity (Bombyx mori [1]): Active

CCOC(=O)c1ccc(OCC(CC)OC(=O)C(C)(C)C)cc1 (stereo not given)
Activity (Bombyx mori [2]): inactive
Activity (Bombyx mori [8]): Active
Activity (Bombyx mori [10]): inactive
